These results are taken from ChEMBL document CHEMBL1275273, “QSAR prediction of D2 receptor antagonistic activity of 6-methoxy benzamides” (Eur J Med Chem, 2010).

One may read the IC50 as the concentration that inhibits the measured activity by half. Higher therefore signals weaker potency in that assay.

This assay concerns the target D(2) dopamine receptor (Homo sapiens, UniProt P14416). Nature of the assay: Antagonist activity at dopamine D2 receptor. Format: functional.

SMILES strings stand for the structures.

Chain of D(2) dopamine receptor (P14416 whole entry): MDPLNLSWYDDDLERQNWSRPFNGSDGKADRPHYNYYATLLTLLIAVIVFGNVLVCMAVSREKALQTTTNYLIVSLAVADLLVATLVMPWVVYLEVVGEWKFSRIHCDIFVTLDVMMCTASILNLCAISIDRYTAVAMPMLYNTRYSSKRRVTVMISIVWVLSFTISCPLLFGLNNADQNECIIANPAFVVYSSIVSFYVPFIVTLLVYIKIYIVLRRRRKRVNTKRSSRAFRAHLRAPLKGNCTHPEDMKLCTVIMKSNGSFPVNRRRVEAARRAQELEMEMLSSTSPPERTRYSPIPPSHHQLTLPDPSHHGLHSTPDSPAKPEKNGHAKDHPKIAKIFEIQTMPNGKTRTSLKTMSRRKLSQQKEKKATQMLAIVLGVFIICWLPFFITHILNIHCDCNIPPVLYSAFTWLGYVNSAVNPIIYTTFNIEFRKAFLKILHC

In turn, `CCN1CCC[C@H]1CNC(=O)c1cc(Cl)ccc1OC` had an IC50 of 257 nM.
With `CCN1CCC[C@H]1CNC(=O)c1cc(Br)ccc1OC` the figure was 45.7 nM.
Take `CCN1CCC[C@H]1CNC(=O)c1cccc(O)c1OC`: the IC50 was 316 nM.
The compound `CCN1CCC[C@H]1CNC(=O)c1c(OC)c(O)cc(I)c1OC` gave an IC50 of 0.288 nM. Compared with the last compound, the IC50 is about 1100-fold lower.
With `CCN1CCC[C@H]1CNC(=O)c1c(OC)ccc(SC)c1OC` the figure was 1.1 nM.
On to `CCc1cc(O)c(OC)c(C(=O)NC[C@@H]2CCCN2CC)c1OC`, for which the IC50 was 1.29 nM.
`CCCCc1ccc(OC)c(C(=O)NC[C@@H]2CCCN2CC)c1OC`: 2.69 nM corresponded to half-maximal inhibition (IC50).
`CCCc1ccc(OC)c(C(=O)NC[C@@H]2CCCN2CC)c1` showed an IC50 of 67.6 nM. Compared with the last compound, the IC50 is about 25-fold higher.
For the compound `CCN1CCC[C@H]1CNC(=O)c1c(OC)ccc(Cl)c1Cl`, the IC50 is 20 nM. This IC50 lies about 3.4-fold lower than the previous one.
`CCN1CCC[C@H]1CNC(=O)c1c(OC)ccc(Cl)c1Br` had an IC50 of 5.62 nM.
With `CCc1ccc(OC)c(C(=O)NC[C@@H]2CCCN2CC)c1Cl` the figure was 4.17 nM; with `CCN1CCC[C@H]1CNC(=O)c1c(Cl)ccc(O)c1OC`, 64.6 nM.
The same measure for `CCN1CCC[C@H]1CNC(=O)c1c(OC)ccc(O)c1OC`: 8.71 nM; for `CCN1CCC[C@H]1CNC(=O)c1cc(F)cc(O)c1OC`: 363 nM.
The same measure for `CCN1CCC[C@H]1CNC(=O)c1cc(Cl)cc(O)c1OC`: 38.9 nM; for `CCN1CCC[C@H]1CNC(=O)c1c(Br)c(Cl)cc(O)c1OC`: 57.5 nM; for `CCc1c(Cl)cc(O)c(OC)c1C(=O)NC[C@@H]1CCCN1CC`: 12 nM.
`CCN1CCC[C@H]1CNC(=O)c1cc(Br)cc(O)c1OC` had an IC50 of 8.32 nM.
In turn, `CCN1CCC[C@H]1CNC(=O)c1c(Cl)c(Br)cc(O)c1OC` showed an IC50 of 17 nM.
As to `CCN1CCC[C@H]1CNC(=O)c1c(Br)c(Br)cc(O)c1OC`, the IC50 is 25.7 nM.
The compound `CCN1CCC[C@H]1CNC(=O)c1c(OC)c(O)cc(Br)c1OC` showed an IC50 of 1.41 nM. Compared with the last compound, the IC50 is about 18-fold lower.
`CCN1CCC[C@H]1CNC(=O)c1c(OC)c(O)cc(Br)c1[N+](=O)[O-]` gave an IC50 of 186 nM.
Regarding `CCN1CCC[C@H]1CNC(=O)c1cc(I)cc(O)c1OC`, the IC50 is 3.02 nM. Compared with the last compound, the IC50 is about 62-fold lower.
The same measure for `CCN1CCC[C@H]1CNC(=O)c1c(Cl)c(C)cc(O)c1OC`: 25.7 nM.
The compound `CCN1CCC[C@H]1CNC(=O)c1c(C)c(C)cc(O)c1OC` had an IC50 of 7.76 nM.
Compound `CCc1cc(O)c(OC)c(C(=O)NC[C@@H]2CCCN2CC)c1` had a half-inhibitory concentration (IC50) of 2.88 nM. Compared with the last compound, the IC50 is about 2.7-fold lower.
As for `CCc1cc(O)c(OC)c(C(=O)NC[C@@H]2CCCN2CC)c1F`, the IC50 was 1.51 nM.
For `CCc1cc(O)c(OC)c(C(=O)NC[C@@H]2CCCN2CC)c1Cl`, the IC50 is 0.912 nM.
The compound `CCc1cc(O)c(OC)c(C(=O)NC[C@@H]2CCCN2CC)c1Br` showed an IC50 of 2.29 nM.
With `CCCc1cc(O)c(OC)c(C(=O)NC[C@@H]2CCCN2CC)c1` the figure was 0.501 nM; with `CCN1CCC[C@H]1CNC(=O)c1cc(OC)cc(O)c1OC`, 204 nM; with `CCN1CCC[C@H]1CNC(=O)c1c(Br)c(OC)cc(O)c1OC`, 67.6 nM.
With `CCCc1cc(O)c(OC)c(C(=O)NC[C@@H]2CCCN2CC)c1Cl` the figure was 3.24 nM; with `CCN1CCC[C@H]1CNC(=O)c1c(Br)c(C)cc(O)c1OC`, 5.5 nM.
Compound `CCN1CCC[C@H]1CNC(=O)c1c(OC)ccc(C)c1OC` gave an IC50 of 5.25 nM.
The same measure for `CCc1c(Br)cc(O)c(OC)c1C(=O)NC[C@@H]1CCCN1CC`: 17 nM.
The same measure for `CCc1cc(O)c(OC)c(C(=O)NC[C@@H]2CCCN2CC)c1CC`: 1.78 nM; for `CCc1ccc(OC)c(C(=O)NC[C@@H]2CCCN2CC)c1`: 39.8 nM; for `CCN1CCC[C@H]1CNC(=O)c1c(Cl)c(Cl)cc(O)c1OC`: 32.4 nM.
With `CCN1CCC[C@H]1CNC(=O)c1c(Cl)c(OC)cc(O)c1OC`, half-maximal inhibition (IC50) required 70.8 nM.
Regarding `CCN1CCC[C@H]1CNC(=O)c1c(Br)ccc(O)c1OC`, it took 56.2 nM to reach half-maximal inhibition (IC50). The IC50 values of the last two compounds are within 1.5-fold of each other.
The same measure for `CCN1CCC[C@H]1CNC(=O)c1c(C)c(Cl)cc(O)c1OC`: 11 nM; for `CCN1CCC[C@H]1CNC(=O)c1c(OC)c(O)cc(Cl)c1OC`: 1.7 nM; for `CCN1CCC[C@H]1CNC(=O)c1c(OC)ccc(Br)c1Br`: 7.94 nM.
With `CCc1ccc(OC)c(C(=O)NC[C@@H]2CCCN2CC)c1Br` the figure was 11 nM; with `CCN1CCC[C@H]1CNC(=O)c1c(F)c(Br)cc(O)c1OC`, 7.08 nM; with `CCN1CCC[C@H]1CNC(=O)c1c(C)c(Br)cc(O)c1OC`, 11 nM.
`CCN1CCC[C@H]1CNC(=O)c1cc(C)cc(O)c1OC`: the 50% inhibitory concentration (IC50) is 19.1 nM.
For the compound `CCCc1cc(O)c(OC)c(C(=O)NC[C@@H]2CCCN2CC)c1C`, 5.01 nM corresponded to half-maximal inhibition (IC50). This IC50 lies about 3.8-fold lower than the previous one.
`CCCc1c(Cl)cc(O)c(OC)c1C(=O)NC[C@@H]1CCCN1CC` had an IC50 of 110 nM. This IC50 lies about 22-fold higher than the previous one.
Regarding `CCc1ccc(O)c(OC)c1C(=O)NC[C@@H]1CCCN1CC`, half-maximal inhibition (IC50) required 123 nM. This IC50 and that of the compound before are within 1.5-fold of each other.
Regarding `CCCc1c(C)cc(O)c(OC)c1C(=O)NC[C@@H]1CCCN1CC`, the IC50 was 141 nM. The IC50 values of the last two compounds are within 1.5-fold of each other.
The compound `CCN1CCC[C@H]1CNC(=O)c1cc([N+](=O)[O-])cc(O)c1OC` showed a half-maximal inhibitory concentration (IC50) of 3020 nM.
`CCN1CCC[C@H]1CNC(=O)c1c(OC)ccc(I)c1OC` gave an IC50 of 0.676 nM.
`CCN1CCC[C@H]1CNC(=O)c1c(OC)cccc1OC`: 52.5 nM corresponded to half-maximal inhibition (IC50).
In turn, `CCc1ccc(OC)c(C(=O)NC[C@@H]2CCCN2CC)c1OC` showed an IC50 of 1.29 nM. Against the preceding compound, the IC50 is about 41-fold lower.
The compound `CCN1CCC[C@H]1CNC(=O)c1c(OC)ccc(Br)c1O` gave an IC50 of 10 nM.
